Results published in patent publication US7105675B2, “Pyridomorphinans, thienomorphinans and use thereof” (Southern Research Institute, priority 1999, dated 2006).
Where two headings read alike, the source gives them in different places.

How the values were obtained:
μ opioid receptor [1] = biological target: T1, μ opioid receptor (Rattus norvegicus, UniProt P33535); experiment: Radioligand binding, mu sites, displacement of [3H]DAMGO in rat brain membranes
T1 construct: Rat membranes were prepared each day using a partially thawed frozen rat brain; from tissue; host or cells: rat brain membranes
T1 sequence (P33535 whole entry): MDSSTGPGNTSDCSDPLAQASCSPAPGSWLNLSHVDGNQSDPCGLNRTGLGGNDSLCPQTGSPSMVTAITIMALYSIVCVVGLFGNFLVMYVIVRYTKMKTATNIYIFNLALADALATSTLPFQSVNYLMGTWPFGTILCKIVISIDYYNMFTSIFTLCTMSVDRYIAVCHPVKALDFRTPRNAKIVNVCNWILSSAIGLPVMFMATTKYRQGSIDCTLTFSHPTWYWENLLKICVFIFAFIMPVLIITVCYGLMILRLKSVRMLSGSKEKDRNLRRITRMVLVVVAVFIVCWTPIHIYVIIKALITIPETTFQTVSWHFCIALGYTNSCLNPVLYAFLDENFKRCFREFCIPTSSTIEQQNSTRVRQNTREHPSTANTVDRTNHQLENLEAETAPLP
Experimental: (§1) Radioligand Binding Assays. Mu binding sites were labeled using [^3H]DAMGO (1–3 nM). Rat membranes were prepared each day using a partially thawed frozen rat brain which was homogenized with a polytron in 10 mL/brain of ice cold 10 mM Tris-HCl, pH 7.0. Membranes were then centrifuged twice at 30,000 g for 10 min and resuspended with ice-cold buffer following each centrifugation. After the second centrifugation, the membranes were resuspended in 50 mM Tris-HCl, pH 7.4 (50 mL/brain) at 25° C. Incubations proceeded for 2 h at 25° C. in 50 mM Tris-HCl, pH 7.4, along with a protease inhibitor cocktail (PIC). The nonspecific binding was determined using 20 μM of levallorphan. Delta binding sites were labeled using [^3]DADLE (2 nM) and rat brain membranes. Rat membranes were prepared each day using a partially thawed frozen rat brain which was homogenized with a polytron in 10 mL/brain of ice cold 10 mM Tris-HCl, pH 7.0. Membranes were then centrifuged twice at 30,000 g for 10 min and resuspended with ice-cold buffer following each centrifugation. After the second centrifugation, the membranes were resuspended in 50 mM Tris-HCl, pH 7.4 (50 mL/brain) at 25° C. Incubations proceeded for 2 h at 25° C. in 50 mM Tris-HCl pH 7.4, containing 100 mM choline chloride, 3 mM MnCl2, and 100 nM DAMGO to block binding to μ sites, and PIC. Nonspecific binding was determined using 20 μM levallorphan. Kappa binding sites were labeled using [^3H]U69,593 (2 nM). Guinea pig brain membranes were prepared each day using partially thawed guinea pig brain which was homogenized with a polytron in 10 mL/brain of ice cold 10 mM Tris-HCl pH 7.0. The membranes were then centrifuged twice at 30,000 g for 10 min and resuspended with ice-cold buffer following each centrifugation. After the second centrifugation, the membranes were resuspended in 50 mM Tris-HCl, pH 7.4 (75 mL/brain) at 25° C. Incubations proceeded for 2 h at 25° C. in 50 mM Tris-HCl, pH 7.4, containing 1 μg/mL of captopril and PIC. Nonspecific binding was determined using 1 μM U69,593. Each ^3H ligand was displaced by 8–10 concentrations of test drug, two times. Compounds were prepared as 1 mM solution with 10 mM Tris buffer (pH 7.4) containing 10% DMSO before drug dilution. All drug dilutions were done at 10 mM Tris-HCl, pH 7.4, containing 1 mg/mL bovine serum albumin. All washes were done with ice-cold 10 mM Tris-HCl, pH 7.4. The IC50 and slope factor (N) were obtained by using the program MLAB-PC (Civilized Software, Bethesda, Md.). Ki values were calculated according to the equation Ki=IC50/(1+[L]/Kd).

κ1 opioid receptor [2] = biological target: T2, κ1 opioid receptor (Cavia porcellus, UniProt P41144); experiment: Radioligand binding, kappa sites, displacement of [3H]U69,593 in guinea pig brain membranes
T2 construct: Guinea pig brain membranes were prepared each day using partially thawed guinea pig brain; from tissue; host or cells: guinea pig brain membranes
T2 sequence (P41144 whole entry): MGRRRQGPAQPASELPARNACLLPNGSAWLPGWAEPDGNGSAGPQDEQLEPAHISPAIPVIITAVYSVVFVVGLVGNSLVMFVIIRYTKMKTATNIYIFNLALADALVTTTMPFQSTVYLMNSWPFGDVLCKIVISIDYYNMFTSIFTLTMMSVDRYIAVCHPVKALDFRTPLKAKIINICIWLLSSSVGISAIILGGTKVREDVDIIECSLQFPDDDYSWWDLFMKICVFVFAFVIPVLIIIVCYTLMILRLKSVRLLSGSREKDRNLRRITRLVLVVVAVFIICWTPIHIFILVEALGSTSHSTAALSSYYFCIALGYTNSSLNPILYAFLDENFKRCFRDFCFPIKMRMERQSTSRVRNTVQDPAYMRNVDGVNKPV
Experimental: as §1

[3] = biological target: T3, δ opioid receptor (DPDPE) in MVD (Mus musculus, UniProt P32300); experiment: Antagonist activity against DPDPE in electrically stimulated mouse vas deferens (MVD); format: cell-based; settings: for antagonist activity DPDPE (δ) MVD IC50 ratio: 1 μM compound, 30 min incubation, IC50 of DPDPE with antagonist divided by control IC50; for Ke selectivity ratio μδ: Ke GPI (μ) over Ke MVD (δ)
T3 construct: Electrically-induced smooth muscle contractions of mouse vas deferens and strips of guinea pig ileum longitudinal muscle myenteric plexus were used; from tissue; host or cells: mouse vas deferens (male ICR mice)
T3 sequence (P32300 whole entry): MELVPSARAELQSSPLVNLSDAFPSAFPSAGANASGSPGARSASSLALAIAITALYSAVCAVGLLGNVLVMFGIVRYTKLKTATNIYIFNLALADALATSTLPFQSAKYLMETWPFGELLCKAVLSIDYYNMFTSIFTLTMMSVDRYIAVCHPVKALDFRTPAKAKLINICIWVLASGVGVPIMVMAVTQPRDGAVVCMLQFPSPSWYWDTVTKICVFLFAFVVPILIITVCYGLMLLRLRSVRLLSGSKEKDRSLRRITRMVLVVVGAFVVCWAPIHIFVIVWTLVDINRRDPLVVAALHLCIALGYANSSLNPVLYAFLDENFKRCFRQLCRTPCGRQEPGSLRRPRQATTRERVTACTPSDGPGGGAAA
Experimental: (§2) Bioassays in GPI and MVD smooth muscle preparations. Electrically-induced smooth muscle contractions of mouse vas deferens and strips of guinea pig ileum longitudinal muscle myenteric plexus were used. Tissues came from maile ICR mice weighing 25–40 g and male Hartley guinea pigs weighing 250–500 g. The tissues were tied to gold chain with suture silk, suspended in 20 mL baths containing 37° C. oxygenated (95% O2, 5% CO2) Krebs bicarbonate solution (magnesium free for the MVD), and allowed to equilibrate for 15 min. The tissues were then stretched to optimal length previously determined to be 1 g tension (0.5 g for MVD) and allowed to equilibrate for 15 min. The tissues were stimulated transmurally between platinum wire electrodes at 0.1 Hz, 0.4 ms pulses (2-ms pulses for MVD), and supramaximal voltage. An initial dose-response curve of DPDPE or PL-017 was constructed at the start of each assay to establish tissue effects, allowing each tissue to be used as its own control.
(§3) Tissues not producing typical results were not used. Experimental compounds were added to the baths in 14–60 μL volumes. Succeeding doses of argonist were added cumulatively to the bath at 3 minute intervals to produce a concentration-response curve. The tissues were then washed extensively with fresh buffer until the original contraction height was re-established. […] Antagonist effects to DPDPE and PL-017 were assayed after incubation of the tissues with 1 μM concentration of the compound in the bath for 30 minutes. The tissues were then washed with fresh buffer for 30 min, and the agonist dose-response curve was repeated. Rightward shifts in the dose-response curves were calculated by dividing the antagonized dose-response curve IC50 value by the unantagoniced IC50 value. IC50 values represent the mean of two to four tissues. IC50 estimates and their associated standard errors were determined by using a computerized nonlinear least-squares method.

[4] = system: μ opioid receptor (PL017) in GPI; experiment: Antagonist activity against PL-017 in electrically stimulated guinea pig ileum (GPI); format: cell-based; settings: for antagonist activity PL017 (μ) GPI IC50 ratio: 1 μM compound, 30 min incubation, IC50 of PL-017 with antagonist divided by control IC50; for antagonist activity PL017 (μ) GPI Ke: Ke = [antagonist]/(IC50 ratio − 1), PL-017 as agonist, n = 3
Experimental: as §2, §3

mouse vas deferens [5] = experiment: Agonist activity in MVD smooth muscle preparation, inhibition of contraction; format: cell-based; settings: read-out: agonist activity MVD IC50 (nM) or % max resp
Experimental: as §2, §3

[6] = system: guinea pig ileum longitudinal muscle myenteric plexus; experiment: Agonist activity in GPI smooth muscle preparation, inhibition of contraction; format: cell-based; settings: Cavia porcellus; read-out: agonist activity GPI IC50 (nM) or % max resp
Experimental: as §2, §3

δ opioid receptor [7] = biological target: T4, δ opioid receptor (Rattus norvegicus, UniProt P33533); experiment: Radioligand binding, delta sites, displacement of [3H]DADLE in rat brain membranes; set-up: Rat membranes were prepared each day using a partially thawed frozen rat brain; from tissue; host or cells: rat brain membranes; settings: for Selectivity Ratio κ1δ / Selectivity Ratio μ/δ: ratio of Ki values
T4 sequence (P33533 whole entry): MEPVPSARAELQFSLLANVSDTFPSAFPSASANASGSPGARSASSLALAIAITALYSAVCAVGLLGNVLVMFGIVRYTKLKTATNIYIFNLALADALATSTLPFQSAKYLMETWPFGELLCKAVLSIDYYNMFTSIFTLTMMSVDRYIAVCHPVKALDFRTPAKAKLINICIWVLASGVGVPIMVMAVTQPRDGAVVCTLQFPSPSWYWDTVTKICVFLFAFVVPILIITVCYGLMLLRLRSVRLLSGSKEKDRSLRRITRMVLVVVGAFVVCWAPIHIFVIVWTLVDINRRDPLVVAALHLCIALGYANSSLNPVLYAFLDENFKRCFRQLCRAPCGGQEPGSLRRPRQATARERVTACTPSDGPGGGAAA
Experimental: as §1

μ opioid receptor [8] = biological target: T1, μ opioid receptor; settings: read-out: Ki (nM) ± SEM μ; [3H]DAMGO, rat brain membranes; data taken from Ananthan et al.; cited from earlier work
κ1 opioid receptor [9] = biological target: T2, κ1 opioid receptor; settings: read-out: Ki (nM) ± SEM κ1; [3H]U69,593, guinea pig brain membranes; data taken from Ananthan et al.; cited from earlier work
[10] = biological target: T3, δ opioid receptor (DPDPE) in MVD; settings: data taken from Ananthan et al.; cited from earlier work
[11] = system: μ opioid receptor (PL017) in GPI; settings: data taken from Ananthan et al.; cited from earlier work
mouse vas deferens [12] = settings: percentage inhibition of contraction at 1 μM; data taken from Ananthan et al.; cited from earlier work
[13] = system: guinea pig ileum longitudinal muscle myenteric plexus; settings: percentage inhibition of contraction at 1 μM; data taken from Ananthan et al.; cited from earlier work
δ opioid receptor [14] = biological target: T4, δ opioid receptor; settings: data taken from Ananthan et al., cited from earlier work

Nc1sc2c(c1C(=O)c1ccccc1)[C@@H]1Oc3c(O)ccc4c3[C@@]13CCN(CC1CC1)[C@H](C4)[C@]3(O)C2 [Compound 8f, 5′-Amino-4′-benzoyl-17-(cyclopropylmethyl)-6,7-didehydro-3,14-dihydroxy-4,5α-epoxythieno[2′,3′:7,6]morphinan]
Ki (μ opioid receptor [1]): 50 ± 3 nM | Ki (κ1 opioid receptor [2]): 14 ± 0.7 nM | Kb [3]: 46 nM | antagonist activity DPDPE (δ) MVD IC50 ratio [3]: 24.4 ± 4.0 | Ke selectivity ratio μδ [3]: 1.3 | antagonist activity PL017 (μ) GPI IC50 ratio [4]: 21.6 ± 7.7 | antagonist activity PL017 (μ) GPI Ke [4]: 62 nM | inhibition at 1 µM (mouse vas deferens [5]): 15% | inhibition at 1 µM [6]: 25% | Ki (δ opioid receptor [7]): 14 ± 0.7 nM | Selectivity Ratio κ1δ (δ opioid receptor [7]; thienomorphinans): 1.0 | Selectivity Ratio μ/δ (δ opioid receptor [7]; thienomorphinans): 3.6

Nc1cnc2c(c1)C[C@@]1(O)[C@H]3Cc4ccc(O)c5c4[C@@]1(CCN3CC1CC1)[C@H]2O5 [Compound 7f, 5′-Amino-17-(cyclopropylmethyl)-6,7-didehydro-3,14-dihydroxy-4,5α-epoxypyrido[2′,3′:6,7]morphinan]
Ki (μ opioid receptor [1]; pyridomorphinans, [3H]DAMGO (1.4–2.0 nM), rat brain membranes, read-out: Ki (nM) ± SEM μ): 12.8 ± 0.93 nM | Ki (κ1 opioid receptor [2]; pyridomorphinans, [3H]U69,593 (1.2–2.2 nm), guinea pig brain membranes, read-out: Ki (nM) ± SEM κ1): 12 ± 1.2 nM | Kb [3]: 26 nM | antagonist activity DPDPE (δ) MVD IC50 ratio [3]: 43.3 ± 9.0 | Ke selectivity ratio μδ [3]: 1.9 | antagonist activity PL017 (μ) GPI IC50 ratio [4]: 23.4 ± 4.8 | antagonist activity PL017 (μ) GPI Ke [4]: 49 nM | inhibition at 1 µM (mouse vas deferens [5]): 6% | inhibition at 1 µM [6]: 0% | Ki (δ opioid receptor [7]; pyridomorphinans, [3H]DADLE (1.3–2.0 nM), rat brain membranes, 100 nM DAMGO to block μ-sites, read-out: Ki (nM) ± SEM δ): 8 ± 0.3 nM | Selectivity Ratio κ1δ (δ opioid receptor [7]; pyridomorphinans): 1.5 | Selectivity Ratio μ/δ (δ opioid receptor [7]; pyridomorphinans): 1.6

Oc1ccc2c3c1OC1c4ncccc4CC4(O)C(C2)N(CC2CC2)CCC314 (stereo not drawn) [Compound 7a]
Ki (μ opioid receptor [8]): 1.5 ± 0.09 nM | Ki (κ1 opioid receptor [9]): 8.8 ± 0.69 nM | Ke selectivity ratio μδ [10]: 4.4 | antagonist activity DPDPE (δ) MVD IC50 ratio [10]: 27.9 ± 1.2 | antagonist activity DPDPE (δ) MVD Ke [10]: 37 nM | antagonist activity PL017 (μ) GPI IC50 ratio [11]: 7.08 ± 3.44 | antagonist activity PL017 (μ) GPI Ke [11]: 164 nM | agonist activity MVD IC50 (nM) or % max resp (mouse vas deferens [12]): 0% | agonist activity GPI IC50 (nM) or % max resp [13]: 0% | Selectivity Ratio κ1δ (δ opioid receptor [14]; ratio of Ki values): 11 | Selectivity Ratio μ/δ (δ opioid receptor [14]; ratio of Ki values): 1.9 | Ki (δ opioid receptor [14]; read-out: Ki (nM) ± SEM δ, [3H]DADLE, rat brain membranes): 0.78 ± 0.06 nM
